Patent US9102701B2, “17-hydroxy-17-pentafluoroethyl-estra-4,9(10)-diene-11-ethynylphenyl derivatives, methods for the production thereof and use thereof for treating diseases” (Bayer Intellectual Property GmbH, priority 2009, dated 2015)

Key:
[1] = molecular target: T1, human progesterone receptor A (Homo sapiens, UniProt P06401); assay: Progesterone receptor-antagonistic action in stably transfected SK-N-MC cells, PR-A, MMTV-LUC reporter; type: cell-based; conditions: read-out: IC50 PR-A
T1 construct: expressed in transfected cells; host or cells: SK-N-MC human neuroblastoma cells, stably transfected with pRChPR-A-neo and pMMTV-LUC
T1 sequence (P06401 1-769 isoform P06401-2): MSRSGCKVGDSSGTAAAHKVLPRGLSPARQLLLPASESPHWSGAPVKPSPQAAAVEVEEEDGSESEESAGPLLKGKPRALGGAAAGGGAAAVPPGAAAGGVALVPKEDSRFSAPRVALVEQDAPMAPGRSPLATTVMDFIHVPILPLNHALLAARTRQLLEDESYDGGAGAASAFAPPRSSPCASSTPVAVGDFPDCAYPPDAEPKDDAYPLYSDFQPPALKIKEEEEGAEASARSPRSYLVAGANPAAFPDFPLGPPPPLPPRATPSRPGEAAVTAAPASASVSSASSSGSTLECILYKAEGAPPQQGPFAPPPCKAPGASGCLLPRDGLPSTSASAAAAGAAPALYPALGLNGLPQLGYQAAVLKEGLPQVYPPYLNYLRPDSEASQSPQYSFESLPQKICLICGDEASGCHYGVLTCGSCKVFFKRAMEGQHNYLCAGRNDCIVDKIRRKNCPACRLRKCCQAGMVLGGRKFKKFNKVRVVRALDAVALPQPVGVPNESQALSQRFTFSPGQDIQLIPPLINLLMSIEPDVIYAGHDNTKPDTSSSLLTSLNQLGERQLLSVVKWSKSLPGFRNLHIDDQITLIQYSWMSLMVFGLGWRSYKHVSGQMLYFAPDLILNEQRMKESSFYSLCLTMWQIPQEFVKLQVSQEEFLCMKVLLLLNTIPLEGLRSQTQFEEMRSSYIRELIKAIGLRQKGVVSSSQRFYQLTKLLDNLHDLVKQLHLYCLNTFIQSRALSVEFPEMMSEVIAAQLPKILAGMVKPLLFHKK
Method: (§1) Determination of Progesterone Receptor-Antagonistic Action in Stable Transfectants of Human Neuroblastoma Cells (SK-N-MC Cells) with the Human Progesterone a or Progesterone B Receptor and an MN-LUC Reporter Construct
(§2) SK-N-MC cells (human neuroblastoma cells) which have been stably transfected with plasmids expressing the human progesterone receptor B (pRChPR-B-neo) or the human progesterone receptor A (pRChPR-A-neo) and a reporter construct (pMMTV-LUC) were incubated for 24 hours either in the absence (negative control) or in the presence of ascending amounts of the particular test compound (0.01 nmol/l, 0.1 nmol/l, 1 nmol/l, 10 nmol/l, 100 nmol/l and […]), in order to determine the agonistic efficacy. As a positive control of the reporter gene induction, the cells were treated with the synthetic gestagen promegestone (0.01 nmol/l, 0.1 nmol/l, 1 nmol/l, 10 nmol/l, 100 nmol/l and […]). To determine the antagonistic activity, the cells were treated with 0.1 nmol/l promegestone and additionally with ascending amounts of the particular test compound (0.01 nmol/l, 0.1 nmol/l, 1 nmol/l, 10 nmol/l, 100 nmol/l and […]). The activity of the reporter gene LUC (LUC=luciferase) was determined in the cell lysates and measured as RLU (relative light units). All measurements are reported as % efficacy and as EC50 and IC50 concentrations.

[2] = molecular target: T2, human progesterone receptor B (Homo sapiens, UniProt P06401); assay: Progesterone receptor-antagonistic action in stably transfected SK-N-MC cells, PR-B, MMTV-LUC reporter; type: cell-based; conditions: read-out: IC50 PR-B
T2 construct: expressed in transfected cells; host or cells: SK-N-MC human neuroblastoma cells, stably transfected with pRChPR-B-neo and pMMTV-LUC
T2 sequence (P06401 1-933): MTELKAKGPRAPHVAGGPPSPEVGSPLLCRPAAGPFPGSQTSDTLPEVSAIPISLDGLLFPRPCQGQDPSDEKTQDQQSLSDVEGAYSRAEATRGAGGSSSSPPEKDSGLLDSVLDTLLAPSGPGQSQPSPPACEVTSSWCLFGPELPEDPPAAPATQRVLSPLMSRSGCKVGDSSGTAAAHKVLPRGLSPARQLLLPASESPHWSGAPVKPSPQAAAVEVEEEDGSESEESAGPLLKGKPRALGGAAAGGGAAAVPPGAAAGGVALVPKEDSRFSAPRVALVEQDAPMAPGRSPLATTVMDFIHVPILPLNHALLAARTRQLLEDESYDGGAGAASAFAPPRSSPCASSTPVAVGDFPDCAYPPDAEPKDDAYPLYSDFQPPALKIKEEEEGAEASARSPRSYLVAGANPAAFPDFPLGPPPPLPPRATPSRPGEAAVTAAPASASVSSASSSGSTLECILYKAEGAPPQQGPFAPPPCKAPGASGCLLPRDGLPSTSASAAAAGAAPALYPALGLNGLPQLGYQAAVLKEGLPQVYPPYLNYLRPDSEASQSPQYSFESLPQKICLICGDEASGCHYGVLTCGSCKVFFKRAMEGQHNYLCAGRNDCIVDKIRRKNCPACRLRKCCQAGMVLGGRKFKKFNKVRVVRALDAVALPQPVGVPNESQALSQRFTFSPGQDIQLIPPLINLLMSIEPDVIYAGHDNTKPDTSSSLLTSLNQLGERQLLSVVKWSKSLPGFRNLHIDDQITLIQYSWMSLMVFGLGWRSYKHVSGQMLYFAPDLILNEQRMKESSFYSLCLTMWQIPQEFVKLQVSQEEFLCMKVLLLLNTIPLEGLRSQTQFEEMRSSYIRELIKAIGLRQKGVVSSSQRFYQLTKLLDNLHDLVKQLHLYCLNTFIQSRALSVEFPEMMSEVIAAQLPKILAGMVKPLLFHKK
Method: as §1, §2

C=CCNC(=O)OCC#Cc1ccc([C@H]2C[C@@]3(C)C(CC[C@@]3(O)C(F)(F)C(F)(F)F)C3CCC4=CC(=O)CCC4=C32)cc1 (stereo partly drawn) [Example 44, allylcarbamic acid 3-[4-((8S,11R,13S,14S,17S)-17-hydroxy-13-methyl-3-oxo-17-pentafluoroethyl-2,3,6,7,8,11,12,13,14,15,16,17-dodecahydro-1H-cyclopenta[a]phenanthren-1′-yl)phenyl]prop-2-ynyl ester]
IC50 [1]: 0.01 nM
IC50 [2]: 0.01 nM

C[C@]12C[C@H](c3ccc(C#CCOC(=O)Nc4ccc(Cl)cc4)cc3)C3=C4CCC(=O)C=C4CCC3C1CC[C@@]2(O)C(F)(F)C(F)(F)F (stereo partly drawn) [Example 55, 4-chlorophenylcarbamic acid 3-[4-((8S,11R,13S,14S,17S)-17-hydroxy-13-methyl-3-oxo-17-pentafluoroethyl-2,3,6,7,8,11,12,13,14,15,16,17-dodecahydro-1H-cyclopenta[a]phenanthren-1′-yl)phenyl]prop-2-ynyl ester]
IC50 [1]: 0.26 nM
IC50 [2]: 0.2 nM

C[C@]12C[C@H](c3ccc(C#CCOC(=O)Nc4ccc(F)cc4)cc3)C3=C4CCC(=O)C=C4CCC3C1CC[C@@]2(O)C(F)(F)C(F)(F)F (stereo partly drawn) [Example 48, 4-fluorophenylcarbamic acid 3-[4-((8S,11R,13S,14S,17S)-17-hydroxy-13-methyl-3-oxo-17-pentafluoroethyl-2,3,6,7,8,11,12,13,14,15,16,17-dodecahydro-1H-cyclopenta[a]phenanthren-1′-yl)phenyl]prop-2-ynyl ester]
IC50 [1]: 0.09 nM
IC50 [2]: 0.08 nM

C[C@]12C[C@H](c3ccc(C#CCNC(=O)Nc4ccc(Cl)cc4)cc3)C3=C4CCC(=O)C=C4CC[C@H]3[C@@H]1CC[C@@]2(O)C(F)(F)C(F)(F)F [Example 35, 1-{3-[4-((8S,11R,13S,14S,17S)-17-hydroxy-13-methyl-3-oxo-17-pentafluoroethyl-2,3,6,7,8,11,12,13,14,15,16,17-dodecahydro-1H-cyclopenta[a]phenanthren-11-yl)phenyl]prop-2-ynyl}-3-(4-chlorophenyl)urea]
IC50 [1]: 0.4 nM
IC50 [2]: 0.4 nM

CCOC(=O)c1ccc(NC(=O)OCC#Cc2ccc([C@H]3C[C@@]4(C)[C@@H](CC[C@@]4(O)C(F)(F)C(F)(F)F)[C@@H]4CCC5=CC(=O)CCC5=C43)cc2)cc1 [Example 53, 4-{3-[4-((8S,11R,13S,14S,17S)-17-hydroxy-13-methyl-3-oxo-17-pentafluoroethyl-2,3,6,7,8,11,12,13,14,15,16,17-dodecahydro-1H-cyclopenta[a]phenanthren-11-yl)phenyl]prop-2-ynyloxycarbonylamino}benzoic acid ethyl ester]
IC50 [1]: 0.16 nM
IC50 [2]: 0.19 nM

C[C@]12C[C@H](c3ccc(C#CCOCC(=O)O)cc3)C3=C4CCC(=O)C=C4CCC3C1CC[C@@]2(O)C(F)(F)C(F)(F)F (stereo partly drawn) [Example 10, {3-[4-((8S,11R,13S,14S,17S)-17-hydroxy-13-methyl-3-oxo-17-pentafluoroethyl-2,3,6,7,8,11,12,13,14,15,16,17-dodecahydro-1H-cyclopenta[a]phenanthren-1′-yl)phenyl]prop-2-ynyloxy}acetic acid]
IC50 [1]: 9 nM
IC50 [2]: 10 nM

CCOC(=O)CCNC(=O)NCC#Cc1ccc([C@H]2C[C@@]3(C)C(CC[C@@]3(O)C(F)(F)C(F)(F)F)C3CCC4=CC(=O)CCC4=C32)cc1 (stereo partly drawn) [Example 30, 3-(3-{3-[4-((8S,11R,13S,14S,17S)-17-hydroxy-13-methyl-3-oxo-17-pentafluoroethyl-2,3,6,7,8,11,12,13,14,15,16,17-dodecahydro-1H-cyclopenta[a]phenanthren-1′-yl)phenyl]prop-2-ynyl}ureido)propionic acid ethyl ester]
IC50 [1]: 0.1 nM
IC50 [2]: 0.4 nM

C[C@]12C[C@H](c3ccc(C#CCOCc4nnn[nH]4)cc3)C3=C4CCC(=O)C=C4CC[C@H]3[C@@H]1CC[C@@]2(O)C(F)(F)C(F)(F)F [Example 18, (8S,11R,13S,14S,17S)-17-hydroxy-13-methyl-17-pentafluoroethyl-11-{4-[3-(1H-tetrazol-5-ylmethoxy)prop-1-yn-1-yl]phenyl}-1,2,6,7,8,11,12,13,14,15,16,17-dodecahydrocyclopenta[a]phenanthren-3-one]
IC50 [1]: 8 nM
IC50 [2]: 5 nM

CCOC(=O)C=CC=CC#Cc1ccc([C@H]2C[C@@]3(C)C(CC[C@@]3(O)C(F)(F)C(F)(F)F)C3CCC4=CC(=O)CCC4=C32)cc1 (stereo partly drawn) [Example 7, 7-(2E/Z,4E/Z)-[4-((8S,11R,13S,14S,17S)-17-hydroxy-13-methyl-3-oxo-17-pentafluoroethyl-2,3,6,7,8,11,12,13,14,15,16,17-dodecahydro-1H-cyclopenta[a]phenanthren-1′-yl)phenyl]hepta-2,4-dien-6-ynoic acid ethyl ester]
IC50 [1]: 0.8 nM
IC50 [2]: 0.9 nM

C[C@]12C[C@H](c3ccc(C#CC=NOCc4ccc(Cl)c(Cl)c4)cc3)C3=C4CCC(=O)C=C4CCC3C1CC[C@@]2(O)C(F)(F)C(F)(F)F (mixture of isomers) [Example 27, (E/Z)-[4-((8S,11R,13S,14S,17S)-17-hydroxy-13-methyl-3-oxo-17-pentafluoroethyl-2,3,6,7,8,11,12,13,14,15,16,17-dodecahydro-1H-cyclopenta[a]phenanthren-1′-yl)phenyl]propynal O-(3,4-dichlorobenzyl) oxime]
IC50 [1]: 0.97 nM
IC50 [2]: 2 nM

CC(C)(C)NC(=O)OCC#Cc1ccc([C@H]2C[C@@]3(C)C(CC[C@@]3(O)C(F)(F)C(F)(F)F)C3CCC4=CC(=O)CCC4=C32)cc1 (stereo partly drawn) [Example 58, tert-butylcarbamic acid 3-[4-((8S,11R,13S,14S,17S)-17-hydroxy-13-methyl-3-oxo-17-pentafluoroethyl-2,3,6,7,8,11,12,13,14,15,16,17-dodecahydro-1H-cyclopenta[a]phenanthren-1′-yl)phenyl]prop-2-ynyl ester]
IC50 [1]: 0.09 nM
IC50 [2]: 0.01 nM

CC(C)(C)c1ccc(NC(=O)OCC#Cc2ccc([C@H]3C[C@@]4(C)C(CC[C@@]4(O)C(F)(F)C(F)(F)F)C4CCC5=CC(=O)CCC5=C43)cc2)cc1 (stereo partly drawn) [Example 59, 4-tert-butylphenylcarbamic acid 3-[4-((8S,11R,13S,14S,17S)-17-hydroxy-13-methyl-3-oxo-17-pentafluoroethyl-2,3,6,7,8,11,12,13,14,15,16,17-dodecahydro-1H-cyclopenta[a]phenanthren-1′-yl)phenyl]prop-2-ynyl ester]
IC50 [1]: 0.7 nM
IC50 [2]: 1.2 nM
